Experimental data taken from US20260069728A1, “MULTI-TARGETING COMPOUND AND USE THEREOF” (Chengdu Shetai Medical Technology Co., Ltd., priority 2023, published 2026).
Where two headings read alike, the source gives them in different places.

Assays:
[1] = test system: SUM149PT human breast cancer cell line; assay: Cell uptake and inhibition assay, SUM149PT; format: cell-based; conditions: for cell uptake, comparison of non-inhibition, FAP single, CXCR4 single and dual inhibition groups (in words): FAPI-04 and T140 as inhibitors; for cell uptake over incubation time (in words): non-inhibition group, 15-120 minutes
Procedure: (§1) The cell lines involved in the cell experiments in the test examples include: SUM149PT human breast cancer cell line, HUTU-80 human duodenal adenocarcinoma cell line, and U-118 MG human brain astrocytoma/glioblastoma cell line.
(§2) SUM149PT: Complete medium was formulated using DMEM high-glucose medium, 10% FBS, and a penicillin-streptomycin solution. The cells were cultured in a constant temperature incubator at 37° C. with 5% CO2. The culture medium was regularly replaced, and the cells were passaged. The culture medium was generally changed every 2 to 3 days. The growth of the tumor cells was observed daily under a microscope, including monitoring cell growth status, checking for adherence, examining cell morphology for any abnormalities, checking for contamination, and observing medium color for any abnormalities. Cells were passaged when they reached 80-90% confluence.
(§3) When cell confluence in the culture flask reached 80%, the cells were digested and centrifuged, and the supernatant was removed. An appropriate amount of medium was added to dilute so that each well contained 500 μL of medium for plating. After thorough mixing by pipetting, the cell suspension was seeded into a 24-well plate at a density of 5×10^5 cells per well. The plate was then placed into the incubator for continued growth. The cells were ready for cellular experiments when they reached 80% confluence.
(§4) (1) The cell uptake assay established four incubation time points: 15, 30, 60, and 120 minutes, respectively. For each time point, four groups were set up: non-inhibition group, a first single inhibition group (FAP single inhibition), a second single inhibition group (CXCR4/GRPR/αvβ3 single inhibition), and a dual inhibition group (FAP inhibitor+CXCR4/GRPR/αvβ3 inhibitor). Each group at each time point was set up with 3 triplicate wells.
(§5) (2) Cells were plated into a 24-well plate according to the cell plating procedure described above.
(§6) (3) The original culture medium was removed from the 24-well plate. Then, 400 μL of 100 mg/mL skimmed milk solution was added to each well for blocking for one hour. After removing the skimmed milk solution, each of the wells was washed three times by adding 400 μL of PBS solution. Subsequently, 146 μL of FBS-free medium was added to each well. Next, the non-inhibition group received 4 μL of cold PBS per well, while the first single inhibition group, the second single inhibition group, and the dual inhibition group received the following additions per well according to Table 3: 2 μL of non-radiolabeled first single inhibitor solution and 2 μL of cold PBS: 2 μL of non-radiolabeled second single inhibitor solution and 2 μL of cold PBS; 2 μL of non-radiolabeled first single inhibitor solution (10 mM) and 2 μL of non-radiolabeled second single inhibitor solution (10 mM). The plate was incubated at room temperature for one hour.
(§7) (4) The ^68Ga- and ^177Lu-labeled radioactive ligands were formulated by adding FBS-free medium to achieve a radioligand system concentration of 20 nM. Then, 50 μL of this radioligand system was added to each well. Each group was incubated according to the designated time points: 15, 30, 60, and 120 minutes.
(5) After the incubation was complete, the supernatant was removed, and the wells were washed three times with 400 μL of PBS solution. Then, 200 μL of 1 M NaOH solution was added to each well for cell lysis. […] Each well was then washed once with 400 μL of PBS solution, and this wash solution was also added to the corresponding radioimmunoassay tubes.
(6) The radioactivity in the cells was measured using a γ counter. A bar graph was plotted using GraphPad Prism software. The inhibition rate for each inhibition group was calculated as follows: Inhibition Rate (%)=(1−[Radioactive Count of the Inhibition Group]/[Radioactive Count of the Non-inhibition Group])×100%. […]

[2] = test system: SUM149PT human breast cancer cell line; assay: Cell saturation binding assay, SUM149PT; conditions: 68Ga-labeled compound
Procedure: (§8) (1) For the cell saturation binding assay, a total of 8 radiolabeled ligand concentrations were set at intervals within the anticipated range. For each concentration, there were 3 groups: the non-inhibition group, the first single inhibition group (FAP single inhibition group), and the second single inhibition group (CXCR4/GRPR/αvβ3 single inhibition group). For each concentration and each group, 3 replicate wells were established.
as §5
(§9) (3) The original culture medium was removed from the 24-well plate. Then, 400 μL of 100 mg/mL skimmed milk solution was added to each well for blocking for one hour. After removing the skimmed milk solution, each of wells was washed three times by adding 400 μL of PBS solution. Subsequently, 146 μL of FBS-free medium was added to each well. Next, the non-inhibition group received 4 μL of cold PBS per well, while the first single inhibition group and the second single inhibition group received the following additions per well according to Table 4: 2 μL of non-radiolabeled first single inhibitor solution and 2 μL of cold PBS; 2 μL of non-radiolabeled second single inhibitor solution and 2 μL of cold PBS. The plate was then incubated at room temperature for one hour.
(§10) (4) The ligands were radiolabeled with 68Ga using the labeling method described previously. Different volumes of FBS-free medium were added to formulate the radioligand systems at corresponding concentrations. Then, 50 μL of the corresponding concentration of the radioligand system was added to each well.
(§11) (5) The supernatant was removed, and the wells were washed three times with 400 μL of PBS. 200 μL of IM NaOH solution was added to each well for cell lysis. […] Each well was washed once with 400 μL of PBS solution, and the washings were sequentially added to the corresponding radioimmunoassay tubes.
(§12) (6) Radioactivity in the cells was measured using a γ counter. The equilibrium dissociation constant (KD) was obtained by fitting the curve using nonlinear regression analysis in GraphPad Prism software. KD is the drug concentration that causes half of the maximum effect (50% receptor occupancy).

[3] = Isoelectric point (PI) measurement; format: physicochemical
[4] = test system: U-118 MG human brain astrocytoma/glioblastoma cell line; assay: Cell saturation binding assay, U-118 MG; conditions: 68Ga-labeled compound
Procedure: as §8, §5, §9, §10, §11, §12

[5] = test system: U-118 MG human brain astrocytoma/glioblastoma cell line; assay: Cell uptake and inhibition assay, U-118 MG; format: cell-based; conditions: for cell uptake over incubation time (in words): all groups, 15-120 minutes; for cell uptake, comparison of non-inhibition, FAP single, integrin αvβ3 single and dual inhibition groups (in words): at 30 minutes, FAPI-04 and RGD as inhibitors
Procedure: as §1
as §2, with “U-118 MG:” for “SUM149PT:”
as §3, §4, §5, §6, §7
(5) After the incubation was complete, the supernatant was removed, and the wells were washed three times with 400 μL of PBS solution. Then, 200 μL of 1 M NaOH solution was added to each well for cell lysis. […]
(6) The radioactivity in the cells was measured using a γ counter. […]

[6] = conclusion from inhibition groups
[7] = FAPI-04 solution, read-out: KD value, First single inhibition group (FAP single inhibition)
[8] = T140 solution (CXCR4 inhibitor), read-out: KD value, Second single inhibition group (CXCR4/GRPR/αvβ3 single inhibition)
[9] = read-out: KD value, Non-inhibition group
[10] = RGD solution (integrin αvβ3 inhibitor), read-out: KD value, Second single inhibition group (CXCR4/GRPR/αvβ3 single inhibition)

SMILES | cell uptake, comparison of non-inhibition, FAP single, CXCR4 single and dual inhibition groups (in words) [1] | specific binding to CXCR4 protein (in words) [1, 6] | specific binding to fibroblast activation protein (in words) [1, 6] | cell uptake over incubation time (in words) [1] | KD values / binding affinity to the receptors (in words) [2] | Kd [2, 7] [nM] | Kd [2, 8] [nM] | Kd [2, 9] [nM] | PI range of series of peaks ([3]; unlabeled compound) | Main peak's PI ([3]; unlabeled compound) | KD values / binding affinity to the receptors (in words) [4] | Kd [4, 7] [nM] | Kd [4, 10] [nM] | Kd [4, 9] [nM] | cell uptake over incubation time (in words) [5] | cell uptake, comparison of non-inhibition, FAP single, integrin αvβ3 single and dual inhibition groups (in words) [5] | specific binding to fibroblast activation protein and integrin αvβ3 (in words) [5, 6] | behaviour of sample prepared in pure water during isoelectric point measurement ([3]; pure water)
CN1C(=O)[C@@H](Cc2ccc(O)cc2)NC(=O)CNC(=O)[C@H](Cc2ccc3ccccc3c2)NC(=O)[C@H](CCCNC(=N)N)NC(=O)[C@H]1CCCNC(=O)c1ccc(CNC(=O)[C@H](CCCCNC(=O)CN2CCN(CC(=O)O)CCN(CC(=O)O)CCN(CC(=O)O)CC2)NC(=O)CCC(=O)NCCOCCOCC(=O)NCCOCCOCC(=O)N2CCN(CCCOc3ccc4nccc(C(=O)NCC(=O)N5CC(F)(F)C[C@H]5C#N)c4c3)CC2)cc1 [SDYD05, DOTA-FAPI-Pentixafor] | non-inhibition group exhibited the highest cell uptake, followed by the FAP single inhibition group, while the dual inhibition group showed the lowest uptake rate | can rapidly and efficiently bind specifically to the CXCR4 protein | bind specifically to fibroblast activation protein to a certain extent | slowly increased and reached a plateau from 15 to 120 minutes | relatively low KD values | 0.373 ± 0.035 | 1.99 ± 0.312 | 0.217 ± 0.018 | 6.617-7.126 | – | – | – | – | – | – | – | – | –
CCCCCC(=O)N[C@@H]1CSCc2cc(CSCCNC(=O)[C@@H](CCCCNC(=O)CN3CCN(CC(=O)O)CCN(CC(=O)O)CCN(CC(=O)O)CC3)NC(=O)COCCOCCNC(=O)COCCOCCNC(=O)CCN3C(=O)CC(SCCNC(=O)CCC(=O)N[C@@H](CCCNC(=N)N)C(=O)N[C@@H](CCCNC(=N)N)C(=O)N[C@@H](Cc4ccc5ccccc5c4)C(=O)N[C@@H]4CSSC[C@@H](C(=O)N[C@@H](CCCNC(=N)N)C(N)=O)NC(=O)[C@H](CCCNC(N)=O)NC(=O)[C@H](CCCNC(=N)N)NC(=O)[C@H](Cc5ccc(O)cc5)NC(=O)[C@@H]5CCCN5C(=O)[C@H](CCCCN)NC(=O)[C@H](CCCCN)NC(=O)[C@H](CCCNC(N)=O)NC(=O)[C@H](Cc5ccc(O)cc5)NC4=O)C3=O)cc(c2)CSC[C@@H](C(=O)O)NC(=O)[C@H](Cc2ccccc2)NC(=O)[C@H](CCC(N)=O)NC(=O)C([C@@H](C)O)NC(=O)[C@@H]2CCCN2C(=O)[C@@H]2CCCN2C1=O (stereo partly drawn) [SDYD02] | – | – | – | – | relatively low KD values | 3.35 ± 0.92 | 6.3 ± 0.78 | 7.11 ± 1.17 | – | 11.183 | – | – | – | – | – | – | – | –
N#C[C@@H]1CC(F)(F)CN1C(=O)CNC(=O)c1ccnc2ccc(OCCCN3CCN(C(=O)[C@H](CCCCNC(=O)CCN4C(=O)CC(SCC(=O)NCCOCCOCCOCCOCCC(=O)NCCCC[C@@H]5NC(=O)[C@@H](Cc6ccc(O)cc6)NC(=O)[C@H](CC(=O)O)NC(=O)CNC(=O)[C@H](CCCNC(=N)N)NC5=O)C4=O)NC(=O)CCC(C(=O)O)N4CCN(CC(=O)O)CCN(CC(=O)O)CCN(CC(=O)O)CC4)CC3)cc12 (stereo partly drawn) [SDYD07] | – | – | – | – | – | – | – | – | – | 4.809 | relatively low KD values | 7.1 ± 1.06 | 7.62 ± 0.923 | 10.5 ± 1.87 | increased significantly within the first 15 minutes, and then slowly increased | from high to low, were as follows: non-inhibition group, FAP single inhibition group, integrin αvβ3 single inhibition group, and dual inhibition group | – | –
CCCCCC(=O)N[C@H]1CSCc2cc(CSCCNC(=O)[C@H](CCCCNC(=O)CCN3C(=O)CC(SCC(=O)NCCOCCOCCOCCOCCC(=O)NCCCC[C@@H]4NC(=O)[C@@H](Cc5ccc(O)cc5)NC(=O)[C@H](CC(=O)O)NC(=O)CNC(=O)[C@H](CCCNC(=N)N)NC4=O)C3=O)NC(=O)CCC(C(=O)O)N3CCN(CC(=O)O)CCN(CC(=O)O)CCN(CC(=O)O)CC3)cc(c2)CSC[C@@H](C(=O)O)NC(=O)[C@H](Cc2ccccc2)NC(=O)[C@H](CCC(N)=O)NC(=O)C([C@@H](C)O)NC(=O)[C@@H]2CCCN2C(=O)[C@@H]2CCCN2C1=O (stereo partly drawn) [SDYD08] | – | – | – | – | – | – | – | – | – | 2.916 | relatively low KD values | 7.12 ± 0.558 | 10.5 ± 1.06 | 8.43 ± 0.475 | increased significantly within the first 15 minutes | from high to low, were as follows: non-inhibition group, FAP single inhibition group, integrin αvβ3 single inhibition group, and dual inhibition group | can specifically bind to fibroblast activation protein and integrin αvβ3 | –
CCCCCC(=O)N[C@@H]1CSCc2cc(CSCCNC(=O)COCCOCCNC(=O)COCCOCCNC(=O)CSC3CC(=O)N(CCC(=O)N[C@H](CCCCNC(=O)CN4CCN(CC(=O)O)CCN(CC(=O)O)CCN(CC(=O)O)CC4)C(=O)NCc4ccc(C(=O)NCCC[C@@H]5C(=O)N[C@@H](CCCNC(=N)N)C(=O)N[C@@H](Cc6ccc7ccccc7c6)C(=O)NCC(=O)N[C@H](Cc6ccc(O)cc6)C(=O)N5C)cc4)C3=O)cc(c2)CSC[C@@H](C(=O)O)NC(=O)[C@H](Cc2ccccc2)NC(=O)[C@H](CCC(N)=O)NC(=O)C([C@@H](C)O)NC(=O)[C@@H]2CCCN2C(=O)[C@@H]2CCCN2C1=O (stereo partly drawn) [SDYD06] | from high to low, were as follows: non-inhibition group, FAP single inhibition group, CXCR4 single inhibition group, and dual inhibition group | – | – | slowly increased and reached a plateau from 15 to 120 minutes | relatively low KD values | 0.455 ± 0.056 | 0.173 ± 0.012 | 1.41 ± 0.213 | – | – | – | – | – | – | – | – | – | insoluble substance formed
